Measured values reported in patent publication US20070167353A1, “PRODRUG COMPOSITION” (priority 2003, published 2007).
Where two headings read alike, the source gives them in different places.

Legend:
[1] = tested on: vaccinia virus; test: microbe, parasite or virus in culture; format: cell-based; conditions: read-out: Vaccinia Plaque Reduction (IC50)
[2] = tested on: KB cell
[3] = buffer
[4] = Caco-2 cell homogenates, n = 3
[5] = tested on: Caco-2 monolayers; test: Caco-2 monolayer transport and stability; format: in vitro ADME; conditions: for Permeability: apical to basolateral, 0.2 mM drug, apical pH 6.0, n = 3; for Stability (% remaining) Apical chamber (donor): percent prodrug remaining in donor solution at 120 minutes; for Stability (% remaining) Basolateral chamber (receiver): percent prodrug remaining in receiver solution at 120 minutes
Procedure: (§1) The transepithelial transport of Ara A, 5′-O-L-valyl Ara A, 5′-O-L-isoleucyl Ara A is tested in Caco-2 monolayers grown in transwell filters following standard procedures as described in detail in Landowski, C. P. et al., Pharm Res, 2005. 22(9): p. 1510-8. In these experiments, transport studies are performed 21 days post-seeding. The assay is initiated by adding drug transport solution (0.2 mM drug in MES buffer, pH 6.0 containing 5 mM D-glucose, 5 mM MES, 1 mM CaCl2, 1 mM MgCl2, 150 mM NaCl, 3 mM KCl, 1 mM NaH2PO4) to the apical chamber of the Caco-2 insert. Two hundred microliter aliquots are withdrawn from the basolateral chamber at predetermined intervals and replaced with fresh HEPES pH 7.4 buffer. The epithelial integrity of representative cell monolayers is assessed by monitoring transepithelial resistance. In these assays, the stability of the drug in both chambers of the insert is also monitored. […] Importantly, the prodrugs are stable, showing minimal metabolism to Ara A and Ara-H over a 2-hour time frame.

[6] = Intestinal absorption after direct duodenal injection in anesthetized rats, plasma by LC/MS/MS; conditions: for AUC0-4 hr of Prodrug: rat plasma, duodenal injection of the named prodrug
Procedure: The systemic plasma profiles of the prodrug, Ara A, and its main metabolite, Ara H are then monitored by removing plasma from a jugular vein cannula over a 4 hour period and assaying by LC/MS/MS assay.
Animals were dosed with Ara A at a level of 1.5 mg/rat via direct duodenal injection into anesthetized rats (n=2 per compound). Plasma samples were taken from the jugular vein at 0, 1, 2, and 4 hours from the jugular vein and were assayed for Ara A (▪), and Ara H (♦) by LC/MS/MS.
Animals were dosed with 5′-O-L isoleucyl Ara A prodrug at a level of 2.7 mg/rat via direct duodenal injection into anesthetized rats (n=3 per compound). Plasma samples were taken from the jugular vein at 0, 0.5, 1, 2, and 4 hours from the jugular vein and were assayed for prodrug (□), Ara A (▪), and Ara H (♦) by LC/MS/MS.
(§2) FIG. 6 is a graph showing mean plasma profiles of Ara A, Ara H, and 5′-O-D Isoleucyl Ara A after administration of 5′-O-D Isoleucyl Ara A into the duodenum of a rat. Animals were dosed with 5′-O-D Isoleucyl Ara A prodrug at a level of 2.7 mg/rat via direct duodenal injection into anesthetized rats (n=2). Plasma samples were taken from the jugular vein at 0, 0.5, 1, 2, and 4 hours from the jugular vein and were assayed for prodrug (□), Ara A (▪), and Ara H (♦) by LC/MS/MS.
as §2, with “7” for “6”, “5′-O-L Valyl” for “5′-O-D Isoleucyl”, “3” for “2.7”
as §2, with “FIG. 8” for “FIG. 6”, “5′-O-D Valyl” for “5′-O-D Isoleucyl”, “of 3.0” for “of 2.7”, “rats (n=3).” for “rats (n=2).”, “and ara” for “and Ara”
as §2, with “9” for “6”, “5′-O-Glycyl” for “5′-O-D Isoleucyl”, “3.0” for “2.7”

[7] = target: T1, human dipeptide transporter, hPept1 (Homo sapiens, UniProt P46059); conditions: for HeLa/hPEPT1 uptake: pH 6
T1 sequence (P46059 1-708): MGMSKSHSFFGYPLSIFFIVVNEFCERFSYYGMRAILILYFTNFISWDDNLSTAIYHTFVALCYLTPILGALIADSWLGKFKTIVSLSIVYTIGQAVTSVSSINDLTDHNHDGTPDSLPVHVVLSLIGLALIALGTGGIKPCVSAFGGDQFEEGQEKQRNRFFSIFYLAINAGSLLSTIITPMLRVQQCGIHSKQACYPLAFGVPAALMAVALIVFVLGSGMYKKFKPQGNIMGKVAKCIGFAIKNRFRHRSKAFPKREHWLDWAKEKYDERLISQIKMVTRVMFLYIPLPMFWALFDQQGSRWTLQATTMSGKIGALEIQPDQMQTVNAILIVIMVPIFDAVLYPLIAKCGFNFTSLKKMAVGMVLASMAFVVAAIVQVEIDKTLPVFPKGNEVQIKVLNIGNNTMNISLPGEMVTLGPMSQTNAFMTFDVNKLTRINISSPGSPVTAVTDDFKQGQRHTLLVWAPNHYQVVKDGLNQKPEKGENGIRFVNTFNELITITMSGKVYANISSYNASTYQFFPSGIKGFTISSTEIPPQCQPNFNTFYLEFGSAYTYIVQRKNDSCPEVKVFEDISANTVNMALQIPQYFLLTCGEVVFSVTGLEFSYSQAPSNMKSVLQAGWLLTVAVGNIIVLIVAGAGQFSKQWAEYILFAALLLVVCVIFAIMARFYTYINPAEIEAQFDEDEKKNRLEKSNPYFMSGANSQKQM

[8] = tested on: KB cell; test: KB cell cytotoxicity; conditions: read-out: KB cell cytotoxicity (IC50)
[9] = tested on: Cowpox; test: organism not typed; format: cell-based; conditions: read-out: Cowpox Plaque Reduction (IC50)
[10] = tested on: adenosine deaminase; test: Stability in the presence of adenosine deaminase; format: biochemical; conditions: FIG. 3A
[11] = Caco-2 monolayer transport and stability; format: in vitro ADME; conditions: human, Caco-2, pH 6
Procedure: as §1

[12] = Solubility testing in water; format: physicochemical; conditions: thermodynamic from solid; water added dropwise to 5 mg
Procedure: Water is added dropwise to 5 mg of each prodrug with intermittent stirring until the drug is fully dissolved. All of the Ara A prodrugs dissolved prior to the addition of 0.19 ml of water or at a concentration>26 mg/ml water. In contrast, unmodified Ara A is poorly soluble (<0.5 mg/ml) under these conditions.

[13] = KB cell cytotoxicity; conditions: human, KB cells
[14] = Orthopoxvirus vaccinia, HFF, 72 h

For `Nc1ncnc2c1ncn2[C@@H]1O[C@H](COC(=O)[C@@H](N)Cc2ccccc2)[C@@H](O)[C@@H]1O` [5′-O-L-phenylalanyl Ara A], the IC50 ([1]; HFF cells, 3 days) was 20 µM, the IC50 [2] was over 100 µM and the “t1/2 pH 7.4” value [3] was 420.9 ± 40.1 min. For the same compound, the “t1/2 Caco-2” value [4] was 3.5 ± 1.0 min.

With `CC(C)[C@H](N)C(=O)OC[C@H]1O[C@@H](n2cnc3c(N)ncnc32)[C@@H](O)[C@@H]1O` [5′-O-L-valyl Ara A] the IC50 ([1]; HFF cells, 3 days) was 12 µM, the Permeability [5] was 3.86 ± 0.03 ×10^−6, cm/s and the “Stability (% remaining) Apical chamber (donor)” value [5] was 82.1%. The “Stability (% remaining) Basolateral chamber (receiver)” value [5] was 62.0%, the “AUC0-4 hr of Prodrug” value [6] was 195 ± 25 ng·h/mL and the “plasma Ara A levels after dosing (in words)” value ([6]; rat, duodenal injection) was “Increased levels of plasma Ara A”. The “t1/2 Caco-2” value [4] was 11.1 ± 0.4 min, the hPepT1/Control [7] was 20.7 and the HeLa/hPEPT1 uptake [7] was 80.3 ± 1.1. The IC50 [8] was 65 µM.

With `Nc1ncnc2c1ncn2[C@@H]1O[C@H](CO)[C@@H](O)[C@@H]1O` [Ara A, Adenine 9-beta-D-arabinofuranoside, reference compound] the IC50 [1, 14] was 5 µM, the IC50 [9] was 6.5 µM and the “deamination by adenosine deaminase (in words)” value [10] was “rapidly hydrolyzed”. For the same compound, the Papp A→B at 2 h, 0.2 mM [11] was 1.42 ± 0.05 ×10⁻⁶ cm/s, the solubility [12] was under 500 µg/mL and the IC50 [13] was over 100 µM.

In the case of `CC[C@H](C)[C@H](N)C(=O)OC[C@H]1O[C@@H](n2cnc3c(N)ncnc32)[C@@H](O)[C@@H]1O` [5′-O-L-isoleucyl Ara A], the IC50 ([1]; HFF cells, 3 days) is reported as 4.5 µM, the Permeability [5] is reported as 5.66 ± 0.14 ×10^−6, cm/s and the “Stability (% remaining) Apical chamber (donor)” value [5] is reported as 89.6%. For the same compound, the “Stability (% remaining) Basolateral chamber (receiver)” value [5] was 77.5%, the “AUC0-4 hr of Prodrug” value [6] was 658 ± 314 ng·h/mL and the “fold increase in circulating Ara A levels over dosing with Ara A” value ([6]; rat, duodenal injection) was over 20 fold. For the same compound, the “percent of total drug measured in plasma found to be Ara-H” value ([6]; rat, in vivo) was about 15%, the “percent of total drug measured in plasma present as Ara A” value ([6]; rat, in vivo) was “approximately 17%” and the “percent of total drug measured in plasma present as prodrug” value ([6]; rat, in vivo) was about 68%. For the same compound, the “t1/2 Caco-2” value [4] was 27.0 ± 1.3 min, the hPepT1/Control [7] was 26.9 and the HeLa/hPEPT1 uptake [7] was 202.0 ± 4.8. For the same compound, the IC50 [8] was over 100 µM.

For `O=c1[nH]cnc2c1ncn2[C@@H]1O[C@H](CO)[C@@H](O)[C@@H]1O` [Ara-H, 9-(beta-D-arabinofuranosyl) hypoxanthine], the IC50 [9] was over 100 µM.

For `Nc1ncnc2c1ncn2[C@@H]1O[C@H](COC(=O)[C@@H]2CCCN2)[C@@H](O)[C@@H]1O` [5′-O-L-prolyl Ara A], the IC50 ([1]; HFF cells, 3 days) was 12 µM, the IC50 [2] was 45 µM and the “t1/2 pH 7.4” value [3] was 20.1 ± 1.0 min. For the same compound, the “t1/2 Caco-2” value [4] was 1.3 ± 0.005 min, the hPepT1/Control [7] was 1.06 and the HeLa/hPEPT1 uptake [7] was 40.8 ± 1.0.

For `Nc1ccn(C[C@@H](CO)OCP(=O)(O)O)c(=O)n1` [Cidofovir, reference compound], the IC50 [1, 14] was 26 µM, the IC50 [9] was 30 µM and the IC50 [13] was over 100 µM.
